The nature of data set [1]: Aqueous solubility of the compound in phosphate buffered saline after 90 mins by laser nephelometry at pH 7.4. Format: physicochemical.
Data set [2] can be described thus: Aqueous solubility of the compound in phosphate buffered saline after 90 mins by laser nephelometry at pH 4. Format: physicochemical.
For another data set, the system named is Rattus norvegicus. Nature of the data set: Neuroprotective activity in rat assessed as reduction in bilateral cortical contusion-induced cerebral edema at 8 mg/kg, ip administered at 1 hr post-injury followed by 8 mg/kg, sc administered 6 hrs post-injury measured after 24 hrs relative to untreated control. It counts as functional. Set-up: scale not given: the % may be the effect or the level left.

The nature of data set [3]: Neuroprotective activity in cortical neurons assessed as reduction in glutamate-induced cell death at 20 uM incubated for 24 hrs prior to glutamate-challenge measured after 24 hrs by MTT assay. It counts as functional, Cortical neurone. Set-up: scale not given: the % may be the effect or the level left.
Data set [4] in a line: Neuroprotective activity in cortical neurons assessed as reduction in glutamate-induced cell death at 5 uM incubated for 24 hrs prior to glutamate-challenge measured after 24 hrs by MTT assay. It counts as functional, Cortical neurone. Set-up: scale not given: the % may be the effect or the level left.
A short description of data set [5]: Half life in human plasma. It counts as ADME, cell-free.
Data set [6] in a line: Half life in aqueous media at pH 7. Format: physicochemical. As to conditions: aqueous media.

These results are taken from ChEMBL document CHEMBL2069197 (ACS Med Chem Lett, 2012).

Some results are limits rather than exact numbers.

On to `CC(=O)[C@H]1CC[C@H]2[C@@H]3CCC4=CC(=O)CC[C@]4(C)[C@H]3CC[C@]12C` [PROGESTERONE], for which the solubility (kinetic) at 1.5 h in data set [1] and in data set [2] was less than 25 µM each time. The values for the Activity (with Rattus norvegicus; in data set [3]; in data set [4]) were 62%, 42% and 4%, respectively. Also, the half-life in data set [5] was 25 min; in data set [6], greater than 10 days.
